ChEMBL document CHEMBL1201862, “PubChem BioAssay data set” (2004)
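How tested: cells in 96-well plates exposed to compound for 48 hours at five concentrations. At the GI50, growth is halved.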 The source made the active and inactive calls. No stated cut-off is given here; in the data, active = GI50 up to about 1.1 µM and inactive = higher.

Legend:
Experiment in all cases: NCI anticancer screen, dose series, 48 h
786-0 = tested on: 786-0
A498 = tested on: A498
A549 = tested on: A549
ACHN = tested on: ACHN
BT-549 = tested on: BT-549
CAKI-1 = tested on: CAKI-1
CCRF-CEM = tested on: CCRF-CEM
COLO 205 = tested on: COLO 205
DU-145 = tested on: DU-145
EKVX = tested on: EKVX
HCT-116 = tested on: HCT-116
HCT-15 = tested on: HCT-15
HL-60 = tested on: HL-60
HOP-62 = tested on: HOP-62
HOP-92 = tested on: HOP-92
HT-29 = tested on: HT-29
Hs-578T = tested on: Hs-578T
IGROV-1 = tested on: IGROV-1
K562 = tested on: K562
KM12 = tested on: KM12
LOX IMVI = tested on: LOX IMVI
M14 = tested on: M14
MDA-MB-231 = tested on: MDA-MB-231
MDA-MB-435 = tested on: MDA-MB-435
MDA-N = tested on: MDA-N
MOLT-4 = tested on: MOLT-4
Malme-3M = tested on: Malme-3M
NCI-H226 = tested on: NCI-H226
NCI-H23 = tested on: NCI-H23
NCI-H460 = tested on: NCI-H460
NCI-H522 = tested on: NCI-H522
NCI/ADR-RES = tested on: NCI/ADR-RES
OVCAR-3 = tested on: OVCAR-3
OVCAR-5 = tested on: OVCAR-5
OVCAR-8 = tested on: OVCAR-8
PC-3 = tested on: PC-3
RPMI-8226 = tested on: RPMI-8226
RXF 393 = tested on: RXF 393
SF-268 = tested on: SF-268
SF-295 = tested on: SF-295
SF-539 = tested on: SF-539
SK-MEL-28 = tested on: SK-MEL-28
SK-MEL-2 = tested on: SK-MEL-2
SK-MEL-5 = tested on: SK-MEL-5
SK-OV-3 = tested on: SK-OV-3
SN12C = tested on: SN12C
SNB-19 = tested on: SNB-19
SNB-75 = tested on: SNB-75
SW-620 = tested on: SW-620
T47D = tested on: T47D
TK-10 = tested on: TK-10
U-251 = tested on: U-251
UACC-257 = tested on: UACC-257
UACC-62 = tested on: UACC-62
UO-31 = tested on: UO-31

COC(=O)C(Cc1c(C2Nc3ccccc3C2CC(NC(C)=O)C(=O)OC)[nH]c2ccccc12)NC(C)=O (stereo not given)
GI50 (786-0): > 100 µM (inactive) | GI50 (A498): > 100 µM (inactive) | GI50 (A549): > 100 µM (inactive) | GI50 (ACHN): > 100 µM (inactive) | GI50 (BT-549): > 100 µM (inactive) | GI50 (CAKI-1): > 100 µM (inactive) | GI50 (CCRF-CEM): > 100 µM (inactive) | GI50 (COLO 205): > 100 µM (inactive) | GI50 (DU-145): > 100 µM (inactive) | GI50 (EKVX): > 100 µM (inactive) | GI50 (HCT-116): > 100 µM (inactive) | GI50 (HCT-15): > 100 µM | GI50 (HL-60): > 100 µM (inactive) | GI50 (HOP-62): > 100 µM (inactive) | GI50 (HOP-92): > 100 µM (inactive) | GI50 (HT-29): > 100 µM (inactive) | GI50 (Hs-578T): > 100 µM (inactive) | GI50 (IGROV-1): > 100 µM (inactive) | GI50 (K562): > 100 µM (inactive) | GI50 (KM12): > 100 µM (inactive) | GI50 (LOX IMVI): > 100 µM (inactive) | GI50 (M14): > 100 µM (inactive) | GI50 (MDA-MB-231): > 100 µM (inactive) | GI50 (MDA-MB-435): > 100 µM (inactive) | GI50 (MDA-N): > 100 µM (inactive) | GI50 (MOLT-4): > 100 µM (inactive) | GI50 (Malme-3M): > 100 µM (inactive) | GI50 (NCI-H226): > 100 µM (inactive) | GI50 (NCI-H23): > 100 µM (inactive) | GI50 (NCI-H460): > 100 µM (inactive) | GI50 (NCI-H522): > 100 µM (inactive) | GI50 (NCI/ADR-RES): > 100 µM (inactive) | GI50 (OVCAR-3): > 100 µM (inactive) | GI50 (OVCAR-5): > 100 µM (inactive) | GI50 (OVCAR-8): > 100 µM (inactive) | GI50 (PC-3): > 100 µM (inactive) | GI50 (RPMI-8226): > 100 µM (inactive) | GI50 (RXF 393): > 100 µM (inactive) | GI50 (SF-268): > 100 µM (inactive) | GI50 (SF-295): > 100 µM (inactive) | GI50 (SF-539): > 100 µM (inactive) | GI50 (SK-MEL-28): > 100 µM (inactive) | GI50 (SK-MEL-2): > 100 µM (inactive) | GI50 (SK-MEL-5): > 100 µM (inactive) | GI50 (SK-OV-3): > 100 µM (inactive) | GI50 (SN12C): > 100 µM (inactive) | GI50 (SNB-19): > 100 µM (inactive) | GI50 (SNB-75): > 100 µM (inactive) | GI50 (SW-620): > 100 µM (inactive) | GI50 (T47D): > 100 µM (inactive) | GI50 (TK-10): > 100 µM (inactive) | GI50 (U-251): > 100 µM (inactive) | GI50 (UACC-257): > 100 µM (inactive) | GI50 (UACC-62): > 100 µM (inactive) | GI50 (UO-31): > 100 µM (inactive)
